Assay results published in patent US9783505B2, “Substituted diaminopyrimidyl compounds, compositions thereof, and methods of treatment therewith” (Signal Pharmaceuticals, LLC, priority 2013, dated 2017).

molecular target: T1, His-PKC-theta (Homo sapiens, UniProt Q04759); test: PKC-theta Assay (384-well time resolved fluorescence, IMAP TR-FRET); type: biochemical; settings: Table 2; read-out: Act. Level (IC50 in the PKC-theta Assay)
T1 construct: His; purchased Invitrogen
Protocol: PKC-theta Assay. A 384-well time resolved fluorescence assay was used to monitor PKC-theta activity. The PKC-theta assay was run in the following assay buffer: 50 mM HEPES pH 7.6, 10 mM MgCl2, 1 mM DTT, 0.01% Triton X-100, 0.01% BSA and 0.1 mM EDTA. To initiate the reaction, 200 nM of Fam-labeled S6-derived peptide (Molecular Devices) and 10 μM of ATP were mixed with 142 pM of His-PKC-theta (Invitrogen) for a total assay volume of 25 μL in each well. The assay was incubated at room temperature for 2 hours and terminated using a 60 μL/well mixture of Detection Binding Solution: 70% IMAP Progressive Binding Buffer A, 30% IMAP Progressive Binding Buffer B, 1:600 Progressive Binding Reagent, and 1:400 TR-FRET Tb Donor (Molecular Devices). The assay plates were then incubated overnight at room temperature and read on a Perkin-Elmer Envision Reader.

T1 sequence (Q04759 whole entry): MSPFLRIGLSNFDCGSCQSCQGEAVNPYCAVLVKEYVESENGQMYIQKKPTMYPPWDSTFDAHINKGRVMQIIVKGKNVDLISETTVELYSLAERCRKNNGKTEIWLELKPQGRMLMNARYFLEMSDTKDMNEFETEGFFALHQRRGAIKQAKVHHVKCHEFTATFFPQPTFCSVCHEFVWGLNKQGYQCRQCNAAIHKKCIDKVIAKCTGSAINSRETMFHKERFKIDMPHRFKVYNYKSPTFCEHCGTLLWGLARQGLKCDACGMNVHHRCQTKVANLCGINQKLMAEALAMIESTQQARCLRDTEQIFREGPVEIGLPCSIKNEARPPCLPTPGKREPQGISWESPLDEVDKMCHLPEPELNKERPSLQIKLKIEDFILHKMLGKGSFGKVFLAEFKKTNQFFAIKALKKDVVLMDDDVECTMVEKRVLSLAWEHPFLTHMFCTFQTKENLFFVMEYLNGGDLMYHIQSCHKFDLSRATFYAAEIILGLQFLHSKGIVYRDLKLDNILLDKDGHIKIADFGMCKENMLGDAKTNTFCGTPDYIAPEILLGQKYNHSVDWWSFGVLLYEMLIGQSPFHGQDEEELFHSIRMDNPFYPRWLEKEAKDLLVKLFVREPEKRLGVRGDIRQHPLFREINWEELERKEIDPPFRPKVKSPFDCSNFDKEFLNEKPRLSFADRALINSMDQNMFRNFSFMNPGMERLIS

| IC50 | Structure (SMILES) |
| --- | --- |
| 100 to 800 nM | CC1(C)[C@@H](O)C[C@H]1Nc1nc(NCCc2cccc(C(F)(F)F)c2)ncc1C#N [Cmpd 45] |
| 800 to 2000 nM | CC1(C)[C@@H](O)C[C@H]1Nc1nc(NCCc2ccc(C(F)(F)F)cc2)ncc1C#N [Cmpd 46] |
| < 100 nM | CC1(C)[C@@H](O)C[C@H]1Nc1nc(NCCc2ccc(-n3cccn3)cc2)ncc1C#N [Cmpd 48] |
| 2000 to 10000 nM | CC1(C)C[C@@H](Nc2nc(NCC(O)c3ccc(OC(F)F)cc3)ncc2C#N)CC[C@H]1O (stereo partly shown) [Cmpd 50] |
| 100 to 800 nM | CC1(C)C[C@H](Nc2nc(NCCc3ccc(OC4CCCC4)cc3)ncc2C#N)CC[C@@H]1O [Cmpd 51] |
| 100 to 800 nM | CC1(C)C[C@H](Nc2nc(NCCc3ccc(CN4CCCC4=O)cc3)ncc2C#N)CC[C@@H]1O [Cmpd 52] |
| 100 to 800 nM | CC1(C)C[C@H](Nc2nc(NCCc3ccc(OC(F)(F)F)cc3)ncc2C#N)CC[C@@H]1O [Cmpd 53] |
| 800 to 2000 nM | CC1(C)C[C@H](Nc2nc(NCCc3cc(C(F)(F)F)cc(C(F)(F)F)c3)ncc2C#N)CC[C@@H]1O [Cmpd 54] |
| 100 to 800 nM | CC1(C)C[C@H](Nc2nc(NCCc3ccccc3OC(F)(F)F)ncc2C#N)CC[C@@H]1O [Cmpd 55] |
| 800 to 2000 nM | CC(O)(CNc1ncc(C#N)c(N[C@@H]2CC[C@H](O)C(C)(C)C2)n1)c1ccccc1 (stereo partly shown) [Cmpd 56] |
| 100 to 800 nM | CC1(C)C[C@H](Nc2nc(NCCc3ccc(CO)cc3)ncc2C#N)CC[C@@H]1O [Cmpd 57] |
| 800 to 2000 nM | CC1(C)C[C@H](Nc2nc(NCCc3cccc(-c4ccccc4)c3)ncc2C#N)CC[C@@H]1O [Cmpd 58] |
| 2000 to 10000 nM | CN(C)C(=O)c1cccc(CCNc2ncc(C#N)c(N[C@@H]3CC[C@H](O)C(C)(C)C3)n2)c1 [Cmpd 61] |
| 100 to 800 nM | COCCOc1ccc(CCNc2ncc(C#N)c(N[C@@H]3CC[C@H](O)C(C)(C)C3)n2)cc1 [Cmpd 62] |
| 100 to 800 nM | CC1(C)C[C@H](Nc2nc(NCCc3ccc(S(C)(=O)=O)cc3)ncc2C#N)CC[C@@H]1O [Cmpd 63] |
| < 100 nM | Cc1ncc(-c2ccc(CCNc3ncc(C#N)c(N[C@@H]4CC[C@H](O)C(C)(C)C4)n3)cc2)s1 [Cmpd 64] |
| 100 to 800 nM | CC1(C)C[C@H](Nc2nc(NCCc3ccc(S(N)(=O)=O)cc3)ncc2C#N)CC[C@@H]1O [Cmpd 65] |
| 100 to 800 nM | CC1(C)C[C@H](Nc2nc(NCC(=O)c3ccc(F)cc3F)ncc2C#N)CC[C@@H]1O [Cmpd 66] |
| 100 to 800 nM | CC1(C)C[C@H](Nc2nc(NCCc3ccccc3O)ncc2C#N)CC[C@@H]1O [Cmpd 67] |

| IC50 | Structure (SMILES) |
| --- | --- |
| 100 to 800 nM | N#Cc1cnc(NCCc2cccc(Cl)c2)nc1N[C@H]1CC[C@@H](O)CC1 [Cmpd 68] |
| 800 to 2000 nM | N#Cc1cnc(NCCc2cccc(Cl)c2)nc1N[C@H]1CC[C@H](O)CC1 [Cmpd 69] |
| 800 to 2000 nM | N#Cc1cnc(NCCc2cccc(Cl)c2)nc1N[C@H]1C[C@@H](O)C1 [Cmpd 70] |
| 2000 to 10000 nM | N#Cc1cnc(NCCc2cccc(Cl)c2)nc1N[C@H]1C[C@H](O)C1 [Cmpd 71] |
| 800 to 2000 nM | N#Cc1ccc(CCNc2ncc(C#N)c(N[C@H]3CC[C@@H](O)CC3)n2)cc1 [Cmpd 73] |
| < 100 nM | CC1(C)[C@@H](CO)C[C@H]1Nc1nc(NCCc2cccc(Cl)c2)ncc1C#N [Cmpd 74] |
| 800 to 2000 nM | CC1(C)[C@H](CO)C[C@@H]1Nc1nc(NCCc2cccc(Cl)c2)ncc1C#N [Cmpd 75] |
| < 100 nM | CC1(C)[C@H](CO)C[C@H]1Nc1nc(NCCc2cccc(Cl)c2)ncc1C#N [Cmpd 76] |
| 2000 to 10000 nM | CC1(C)[C@@H](CO)C[C@@H]1Nc1nc(NCCc2cccc(Cl)c2)ncc1C#N [Cmpd 77] |
| 100 to 800 nM | CC1(C)C[C@H](Nc2nc(NCCc3ccc(Oc4ccccc4)cc3)ncc2C#N)CC[C@@H]1O [Cmpd 79] |
| 2000 to 10000 nM | CC1(C)C[C@H](Nc2nc(NCC(O)c3ccc(O)cc3)ncc2C#N)CC[C@@H]1O (stereo partly shown) [Cmpd 80] |
| 100 to 800 nM | CC1(C)C[C@H](Nc2nc(NCC(=O)c3ccc(Cl)cc3)ncc2C#N)CC[C@@H]1O [Cmpd 81] |
| 100 to 800 nM | CC1(C)C[C@H](Nc2nc(NCCc3ccc(N4CCCCC4)cc3)ncc2C#N)CC[C@@H]1O [Cmpd 83] |
| 100 to 800 nM | CC1(C)[C@@H](O)C[C@H]1Nc1nc(NCCc2ccc(O)cc2)ncc1C#N [Cmpd 84] |
| 100 to 800 nM | COc1ccccc1CCNc1ncc(C#N)c(N[C@@H]2C[C@H](O)C2(C)C)n1 [Cmpd 85] |
| < 100 nM | CC1(C)[C@@H](O)C[C@H]1Nc1nc(NCCc2cccc(Cl)c2)ncc1C#N [Cmpd 86] |
| < 100 nM | CC1(C)C[C@H](Nc2nc(NCCc3cccc(Cl)c3F)ncc2C#N)CC[C@@H]1O [Cmpd 87] |
| < 100 nM | CC1(C)C[C@H](Nc2nc(NCCc3ccc(F)c(Cl)c3)ncc2C#N)CC[C@@H]1O [Cmpd 88] |
| < 100 nM | CC1(C)C[C@H](Nc2nc(NCCc3cc(Cl)ccc3F)ncc2C#N)CC[C@@H]1O [Cmpd 89] |

same assay, conditions: read-out: Act. Level (IC50 in the PKC-theta Assay)

| IC50 | Structure (SMILES) |
| --- | --- |
| < 100 nM | CC1(C)C[C@H](Nc2nc(NCc3cncnc3-c3ccc(F)cc3)ncc2C(F)(F)F)CC[C@@H]1O [Cmpd 44] |
| < 100 nM | Cc1cccc(Oc2ncncc2CNc2ncc(C#N)c(N[C@H]3CC[C@@H](O)CC3)n2)c1 [Cmpd 45] |
| < 100 nM | C[C@]1(O)CC[C@@H](Nc2nc(NCc3cnccc3C(F)(F)F)ncc2C(F)(F)F)CC1 [Cmpd 46] |
| < 100 nM | CC1(C)[C@@H](CO)C[C@H]1Nc1nc(NCc2c[n+]([O-])ccc2C(F)(F)F)ncc1C(F)(F)F [Cmpd 48] |
| < 100 nM | CC(C)(F)c1ncncc1CNc1ncc(C#N)c(N[C@H]2CC[C@@](C)(O)CC2)n1 [Cmpd 50] |
| < 100 nM | CC1(C)[C@H](CO)C[C@H]1Nc1nc(NCc2cnccc2C(F)(F)F)ncc1C#N [Cmpd 51] |
| < 100 nM | N#Cc1cnc(NCc2cncnc2-c2ccccc2)nc1N[C@H]1CC[C@@H](O)CC1 [Cmpd 52] |
| < 100 nM | CC1(C)[C@@H](CO)C[C@H]1Nc1nc(NCc2c[n+]([O-])ccc2C(F)(F)F)ncc1C#N [Cmpd 53] |
| < 100 nM | CC(C)c1ncncc1CNc1ncc(C#N)c(N[C@@H]2C[C@H](CO)C2(C)C)n1 [Cmpd 54] |
| < 100 nM | Cc1cc(C(F)(F)F)c(CNc2ncc(C(F)(F)F)c(N[C@@H]3CC[C@H](O)C(C)(C)C3)n2)c[n+]1[O-] [Cmpd 55] |
| < 100 nM | CC(C)c1ncncc1CNc1ncc(C#N)c(N[C@H]2CC[C@@](C)(O)CC2)n1 [Cmpd 56] |
| < 100 nM | CCOc1ncncc1CNc1ncc(C(F)(F)F)c(N[C@@H]2C[C@H](O)C2(C)C)n1 [Cmpd 57] |
| < 100 nM | CCOc1ncncc1CNc1ncc(C#N)c(N[C@@H]2C[C@H](O)C2(C)C)n1 [Cmpd 58] |
| < 100 nM | CC1(C)[C@@H](O)C[C@H]1Nc1nc(NCc2cncnc2C(F)(F)F)ncc1C#N [Cmpd 61] |
| < 100 nM | COc1ncncc1CNc1ncc(C(F)(F)F)c(N[C@@H]2C[C@H](O)C2(C)C)n1 [Cmpd 62] |
| < 100 nM | C[C@@H]1CC[C@H](Nc2nc(NCc3cnccc3C(F)(F)F)ncc2C(F)(F)F)C[C@H]1O [Cmpd 63] |
| < 100 nM | CC1(C)[C@@H](CO)C[C@H]1Nc1nc(NCc2cnccc2C(F)(F)F)ncc1C#N [Cmpd 64] |
| < 100 nM | CCc1ncncc1CNc1ncc(C#N)c(NC2CC(C)(O)C2(C)C)n1 (stereo not shown) [Cmpd 65] |
| < 100 nM | CC1(C)[C@H](CO)C[C@H]1Nc1nc(NCc2cnccc2C(F)(F)F)ncc1C(F)(F)F [Cmpd 66] |

| IC50 | Structure (SMILES) |
| --- | --- |
| < 100 nM | CCc1ncncc1CNc1ncc(C#N)c(N[C@@H]2C[C@H](O)C2(C)C)n1 [Cmpd 67] |
| < 100 nM | CNC(=O)[C@H]1CC[C@@H](Nc2nc(NCc3cnccc3C(F)(F)F)ncc2C#N)CC1 [Cmpd 68] |
| < 100 nM | O[C@H]1CC[C@@H](Nc2nc(NCc3cnccc3C(F)(F)F)ncc2C(F)(F)F)CC1 [Cmpd 69] |
| < 100 nM | CC1(C)[C@@H](O)C[C@H]1Nc1nc(NCc2cncnc2-c2ccc(F)cc2)ncc1C(F)(F)F [Cmpd 70] |
| < 100 nM | C[C@]1(O)CC[C@@H](Nc2nc(NCc3cnccc3C(F)(F)F)ncc2C#N)CC1 [Cmpd 71] |
| < 100 nM | COC1CC(Nc2nc(NCc3cnccc3C(F)(F)F)ncc2C(F)(F)F)C1(C)C (stereo not shown) [Cmpd 74] |
| < 100 nM | N#Cc1cnc(NCc2cnccc2C(F)(F)F)nc1N[C@H]1CC[C@@H](O)CC1 [Cmpd 75] |
| < 100 nM | O[C@H]1CC[C@@H](Nc2nc(NCc3cncnc3-c3ccccc3)ncc2C(F)(F)F)CC1 [Cmpd 76] |
| < 100 nM | CC1(C)C(Nc2nc(NCc3cncnc3OCCC(F)(F)F)ncc2C#N)C[C@H]1O (stereo partly shown) [Cmpd 77] |
| < 100 nM | CC1(C)[C@@H](O)C[C@H]1Nc1nc(NCc2cncnc2-c2ccc(F)cc2)ncc1C#N [Cmpd 79] |
| < 100 nM | C[C@]1(O)CC[C@@H](Nc2nc(NCc3cncnc3-c3ccccc3)ncc2C(F)(F)F)CC1 [Cmpd 80] |
| < 100 nM | O[C@H]1CC[C@@H](Nc2nc(NCc3cncnc3C(F)(F)F)ncc2C(F)(F)F)CC1 [Cmpd 81] |
| < 100 nM | CC1(C)[C@H](O)C[C@@H]1Nc1nc(NCc2cncnc2OCCC(F)(F)F)ncc1C(F)(F)F [Cmpd 83] |
| < 100 nM | C[C@]1(O)CC[C@@H](Nc2nc(NCc3cncnc3-c3ccccc3)ncc2C#N)CC1 [Cmpd 84] |
| < 100 nM | CC1(C)C(O)C[C@@H]1Nc1nc(NCc2cncnc2OCCC(F)(F)F)ncc1C(F)(F)F (stereo partly shown) [Cmpd 85] |
| < 100 nM | C[C@]1(O)CC[C@@H](Nc2nc(NCc3cncnc3-c3ccc(F)cc3)ncc2C#N)CC1 [Cmpd 86] |
| < 100 nM | C[C@@H]1CC[C@H](Nc2nc(NCc3cnccc3C(F)(F)F)ncc2C#N)C[C@H]1O [Cmpd 87] |
| < 100 nM | CC(F)(F)COc1ncncc1CNc1ncc(C#N)c(NC2C[C@@H](O)C2(C)C)n1 (stereo partly shown) [Cmpd 88] |
| < 100 nM | CC1(C)[C@H](O)C[C@@H]1Nc1nc(NCc2cncnc2OCCC(F)(F)F)ncc1C#N [Cmpd 89] |
